Data from patent US8883841B2, “Oncogenic ras-specific cytotoxic compound and methods of use thereof” (The Board of Regents of the University of Texas System, priority 2005, dated 2014).

Columns and labels:
H460 cells = assay: PKCiota siRNA knockdown, apoptosis by FACS in H460 cells; type: cell-based, human; conditions: 1 μM, 12 h
Procedure: Knockdown of PKCiota suppressed Oncrasin-mediated apoptosis and cytotoxicity. To investigate possible role of PCKiota in Oncrasin-1 mediated cytotoxicity, PKCiota was knocked down in H460 cells by using oligo ribonucleotides. H460 cells were treated with 200 pM PKCiota siRNA for 24 h, and then with DMSO or 1 μM Oncrasin for another 12 h. After that, cells harvested for analysis of apoptosis by fluorescence-activated cell sorting (FACS) and for expression of PKCiota by Western blot analysis. […] To further study the effect of atypical PKC in Oncrasin-induced cytotoxicity, the inventors obtained plasmids encoding PKCiota and PKCzeta siRNA from Origene Corporation and made stable PKCiota and PKCzeta knockdown T29Kt1 cells. […] The IC50 in PKCiota knockdown T29Kt1 cells were 100 fold higher than parental T29K cells. […] Thus, compounds with synthetic lethality for PKCiota might be useful for treatment of those cancers.

[1] = tested on: H460 cells transfected with Raf-1 constructs; assay: SRB cell viability of H460 cells stably transfected with Raf-1 plasmids; type: cell-based, human; conditions: vs parental H460
Procedure: FIGS. 10A-10D Effect of Oncrasin-1 on Raf-1 expression. (FIG. 10A) H460 cells were treated with various concentrations of Oncrasin-1 and harvested 24 h later for Western blot analysis. (FIG. 10B) Reverse transcriptase-based polymerase chain reaction (RT-PCR) assay. H460 cells treated with 1 μM Oncrasin-1 for various times or at various concentrations for 24 h, as indicated. (+, −, positive and negative controls). […] (FIG. 10D) Dose effects of Oncrasin-1 on stable cell lines transfected with Raf-1 plasmids. Parental H460 cells and H460 cells transfected with wild-type Raf-1 (Raf-1), constitutive Raf-1 (Raf-1C), or dominant-negative Raf-1 Raf-1/DN) were treated with various concentrations of Oncrasin-1, and cell viability was determined by SRB assay.
Suppression of Raf-1 expression by Oncrasin-1. […] To elucidate the roles of Raf-1 in Oncrasin-induced apoptosis, the inventors evaluated the expression of Raf-1 in H460 cells after treatment with different concentrations of Oncrasin-1. […] Because Raf-1 executes anti-apoptosis function via a variety of pathways. […] However, the resistance to Oncrasin-1 was more prominent in the constitutively active Raf-1-transfected cells than in cells with the wild-type Raf-1 (FIG. 10C and FIG. 10D).

[2] = tested on: TNFα-mediated NFκB activation; assay: Electrophoretic mobility shift assay (EMSA) of NFκB activity; type: cell-based, human; conditions: 12 h, TNFα 1 ng/ml
Procedure: (§1) FIGS. 11A-11C Suppression of TNFα-induced NFκB activation. NKκB reporter plasmid assay. T29K cells were transfected with pNFκB-Luc and pCMV-lacZ. 12 h later, the cells were treated with TNFα (1 ng/ml) with or without (FIG. 11A) Oncrasin-1 (10 μM) or (FIG. 11B) Sulindac (10 μm). The luciferase activity was determined at 8 h after the treatment and normalized with beta-gal activity. (FIG. 11C) H460 and T29K cells were treated with DMSO or different concentrations of Oncrasin-1 as indicated for 12 h, with or without TNFα (1 ng/ml). The NFκB activity was analyzed by EMSA.
(§2) Suppression of NFκB. In a separated study, the effect of Oncrasin compounds on NF-κB activity was assessed. Nuclear factor-κB (NF-κB)/Rel represents a group of structurally related and evolutionarily conserved transcriptional factors that play critical roles in chronic and acute inflammatory diseases, autoimmune diseases and various type of cancers (Karin and Neriah, 2000; Karin and Karin, 2006; Barnes et al., 1997). In unstimulated cells, most NF-κB/Rel dimers are bound to IκBs and retained in the cytoplasm. Upon a various stimulations, IκBs are phosphorylated and rapidly degraded, releasing NF-κB, which then enters the nucleus and executes transcriptional functions. […] The luciferase activity was determined and normalized for transfection with beta-galactosidase activity. […]

[3] = tested on: Raf-1, Akt, PKCzeta, PKCdelta, and p53; assay: Immunohistochemical staining, subcellular localization of Raf-1, Akt, PKCzeta, PKCdelta, p53; type: cell-based, human; conditions: T29Kt1 or H460 cells, 12 h
Procedure: Effects on subcellular localization of PKCiota. […] To further investigate molecular mechanisms of Oncrasin action the inventors studied the subcellular localization of several molecules involved in Ras-signaling pathway because the functions of Ras and other proteins are directly related to their subcellular localizations. For this purpose, T29Kt1 or H460 cells were seeded on cover glass slides and treated with DMSO or Oncrasin-1 for 12 h. Cells were then fixed with paraformaldehyde, permeabilized with Triton X-100 and stained with various antibodies for immunohistochemical examination. […] Nevertheless, substantial subcellular localization change was detected for PKCiota after Oncrasin-1 treatment (FIG. 6). In both H460 and T29Kt1 cells, both PKCiota and PKCzeta were diffusely distributed in cells with high concentration on cell membrane in nucleus, consisting with previous reports that aPKC contains both nuclear localization signal (NLS) and nuclear export signal (NES), and can shuttle between cytoplasm and nucleus, which was regulated by intramolecular conformational changes, phosphorylation or by treatment with growth factors (Perander et al., 2001; White et al., 2002; Neri et al., 1999). […] Such aggregation of PKCiota was not observed in Oncrasin-resistant T29 and H1299 cells. […]

[4] = tested on: TNFα-induced NFκB activation; assay: NFκB reporter plasmid (pNFκB-Luc) luciferase assay in T29Kt1 cells; type: cell-based, human; conditions: 10 μM, TNFα 1 ng/ml, 8 h
Procedure: as §1, §2

O=Cc1cn(Cc2ccc(Cl)cc2)c2ccccc12 [Oncrasin K001, 1H-Indole-3-carboxaldehyde, 1-[(4-chlorophenyl)methyl]-(9CI)]
apoptosis in H460 cells after knockdown of PKCiota by siRNA (H460 cells): dramatically suppressed Oncrasin-induced apoptosis | susceptibility of H460 cells transfected with dominant-negative Raf-1 [1]: more sensitive | susceptibility of H460 cells transfected with wild-type or constitutively active Raf-1 [1]: less susceptible than parental H460 cells | concentration that effectively suppresses TNFα-mediated NFκB activation, H460 cells [2]: ≥ 1 µM | concentration that effectively suppresses TNFα-mediated NFκB activation, T29Kt1 cells [2]: ≥ 1 µM | subcellular localization of Raf-1, Akt, PKCzeta, PKCdelta, and p53 [3]: did not induce obvious changes | toxicity to T29H cells (T29Ht1 cells; at 33 μM (the highest concentration tested)): not toxic | toxicity to T29Ht1 (T29H) cells (T29Ht1 cells; at any of the doses tested (dose response)): not toxic | cytotoxicity in T29Ht1 cells (T29Ht1 cells; up to 100 μM, the highest concentration tested): no detectable cytotoxicity | suppression of TNFα-induced NFκB activation (luciferase) [4]: more active than Sulindac
